Test results as given in patent US12435044B2, “Pyridazinone herbicides and pyridazinone intermediates used to prepare a herbicide” (FMC Corporation, priority 2018, dated 2025).

Columns and labels:
Format in all cases: in vivo
[1] = test system: rice (transplanted and water seeded, Oryza sativa); assay: Test C flooded paddy test; details: Flood, scale 0 to 100
From the text: (§1) Plant species in the flooded paddy test consisted of rice (transplanted and water seeded, Oryza sativa), sedge, umbrella (small-flower umbrella sedge, Cyperus difformis), ducksalad (Heteranthera limosa), Bulrush, Japanese (Scirpus juncoides) and barnyardgrass (Echinochloa crus-galli) grown to the 2-leaf stage for testing. At time of treatment, test pots were flooded to 3 cm above the soil surface, treated by application of test compounds directly to the paddy water, and then maintained at that water depth for the duration of the test. Treated plants and controls were maintained in a greenhouse for 13 to 15 d, after which time all species were compared to controls and visually evaluated. Plant response ratings, summarized in Table C are based on a scale of 0 to 100 where 0 is no effect and 100 is complete control. A dash (-) response means no test result.

[2] = test system: barnyardgrass (Echinochloa crus-galli); assay: Test C flooded paddy test; details: Flood, scale 0 to 100
From the text: as §1

[3] = test system: ducksalad (Heteranthera limosa); assay: Test C flooded paddy test; details: Flood, scale 0 to 100
From the text: as §1

[4] = test system: galium (catchweed bedstraw, Galium aparine); assay: Test C pre-/postemergence greenhouse test; details: scale 0 to 100
From the text: (§2) Seeds of plant species selected from blackgrass (Alopecurus myosuroides), ryegrass, Italian (Lolium multiflorum), wheat, winter (winter wheat, Triticum aestivum), galium (catchweed bedstraw, Galium aparine), corn (Zea mays), crabgrass, large (Digitaria sanguinalis), foxtail, giant (Setaria faberii), johnsongrass (Sorghum halepense), lambsquarters (Chenopodium album), morningglory (Ipomoea coccinea), nutsedge, yellow (Cyperus esculentus), pigweed (Amaranthus retroflexus), ragweed (common ragweed, Ambrosia elatior), soybean (Glycine max), barnyardgrass (Echinochloa crus-galli), oilseed rape (Brassica napus), waterhemp (common waterhemp, Amaranthus rudis), pigweed, palmer (Amaranthus palmeri), kochia (Kochia scoparia), oat, wild (Avena fatua), surinam grass (Brachiaria decumbens), windgrass (Apera spica-venti), poinsettia, wild (Euphorbia heterophylla) and velvetleaf (Abutilon theophrasti) were planted into a silt loam soil and treated preemergence with test chemicals formulated in a non-phytotoxic solvent mixture which included a surfactant.
(§3) At the same time, plants selected from these crop and weed species and also chickweed (common chickweed, Stellaria media), buckwheat, wild (Polygonum convolvulus), mustard, wild (Sinapis arvensis), field poppy (Papaver rhoeas), field violet (Viola arvensis), nightshade (eastern black nightshade, Solanum ptycanthum), speedwell (bird's-eye speedwell, Veronica persica), horseweed (Conyza canadensis), cutleaf geranium (Geranium dissectum), and Canada thistle (Cirsium arvense) were planted in pots containing Redi-Earth® planting medium (Scotts Company, 14111 Scottslawn Road, Marysville, Ohio 43041) comprising spaghnum peat moss, vermiculite, wetting agent and starter nutrients and treated with postemergence applications of test chemicals formulated in the same manner. Plants ranged in height from 2 to 18 cm (1- to 4-leaf stage) for postemergence treatments. Treated plants and controls were maintained in a greenhouse for 13 to 21 d, after which time all species were compared to controls and visually evaluated. Plant response ratings, summarized in Table C-1 (postemergence) and C-2 (preemergence), are based on a scale of 0 to 100 where 0 is no effect and 100 is complete control. A dash (-) response means no test result.

kochia (Kochia scoparia) = assay: Test C pre-/postemergence greenhouse test; details: Postemergence, scale 0 to 100
From the text: as §2, §3

[5] = test system: nutsedge, yellow (Cyperus esculentus); assay: Test C pre-/postemergence greenhouse test; details: scale 0 to 100
From the text: as §2, §3

[6] = test system: johnsongrass (Sorghum halepense); assay: Test C pre-/postemergence greenhouse test; details: scale 0 to 100
From the text: as §2, §3

[7] = test system: barnyardgrass (Echinochloa crus-galli); assay: Test C pre-/postemergence greenhouse test; details: scale 0 to 100
From the text: as §2, §3

[8] = test system: waterhemp (common waterhemp, Amaranthus rudis); assay: Test C pre-/postemergence greenhouse test; details: scale 0 to 100
From the text: as §2, §3

corn (Zea mays) = assay: Test C pre-/postemergence greenhouse test; details: scale 0 to 100
From the text: as §2, §3

`Cc1ccc2ccc(C)c(-c3c(O)c(Cl)nn(C)c3=O)c2c1` [Cpd. No. 20, 6-chloro-4-(2,7-dimethyl-1-naphthalenyl)-5-hydroxy-2-methyl-3(2H)-pyridazinone] was tested, and the “Plant response rating, Rice, Transplanted” value ([1]; 31 g ai/ha) was 0, the “Plant response rating, Rice, Water Seeded” value ([1]; 31 g ai/ha) was 0 and the “Plant response rating, Rice, Transplanted” value ([1]; 62 g ai/ha) was 0. The “Plant response rating, Rice, Water Seeded” value ([1]; 62 g ai/ha) was 0, the “Plant response rating, Rice, Transplanted” value ([1]; 125 g ai/ha) was 0 and the “Plant response rating, Rice, Water Seeded” value ([1]; 125 g ai/ha) was 0. For the same molecule, the “Plant response rating, Rice, Transplanted” value ([1]; 250 g ai/ha) was 0, the “Plant response rating, Rice, Water Seeded” value ([1]; 250 g ai/ha) was 0 and the “Plant response rating, Barnyardgrass” value ([2]; 31 g ai/ha) was 0. For the same molecule, the “Plant response rating, Barnyardgrass” value ([2]; 62 g ai/ha) was 0, the “Plant response rating, Barnyardgrass” value ([2]; 125 g ai/ha) was 0 and the “Plant response rating, Barnyardgrass” value ([2]; 250 g ai/ha) was 20. For the same molecule, the “Plant response rating, Ducksalad” value ([3]; 31 g ai/ha) was 0, the “Plant response rating, Ducksalad” value ([3]; 62 g ai/ha) was 30 and the “Plant response rating, Ducksalad” value ([3]; 125 g ai/ha) was 70. The “Plant response rating, Ducksalad” value ([3]; 250 g ai/ha) was 85, the “Plant response rating, Galium” value ([4]; Postemergence, 16 g ai/ha) was 95 and the “Plant response rating, Galium” value ([4]; Postemergence, 31 g ai/ha) was 95. The “Plant response rating, Galium” value ([4]; Postemergence, 62 g ai/ha) was 95, the “Plant response rating, Galium” value ([4]; Postemergence, 125 g ai/ha) was 95 and the “Plant response rating, Galium” value ([4]; Preemergence, 31 g ai/ha) was 100. For the same molecule, the “Plant response rating, Galium” value ([4]; Preemergence, 61 g ai/ha) was 98, the “Plant response rating, Galium” value ([4]; Preemergence, 62 g ai/ha) was 100 and the “Plant response rating, Galium” value ([4]; Preemergence, 125 g ai/ha) was 100. The “Plant response rating, Kochia” value (kochia (Kochia scoparia); 16 g ai/ha) was 80, the “Plant response rating, Kochia” value (kochia (Kochia scoparia); 31 g ai/ha) was 85 and the “Plant response rating, Kochia” value (kochia (Kochia scoparia); 62 g ai/ha) was 90. The “Plant response rating, Kochia” value (kochia (Kochia scoparia); 125 g ai/ha) was 98, the “Plant response rating, Nutsedge, Yellow” value ([5]; Postemergence, 16 g ai/ha) was 90 and the “Plant response rating, Nutsedge, Yellow” value ([5]; Postemergence, 31 g ai/ha) was 90. For the same molecule, the “Plant response rating, Nutsedge, Yellow” value ([5]; Postemergence, 62 g ai/ha) was 95, the “Plant response rating, Nutsedge, Yellow” value ([5]; Postemergence, 125 g ai/ha) was 98 and the “Plant response rating, Nutsedge, Yellow” value ([5]; Preemergence, 31 g ai/ha) was 95. For the same molecule, the “Plant response rating, Nutsedge, Yellow” value ([5]; Preemergence, 61 g ai/ha) was 40, the “Plant response rating, Nutsedge, Yellow” value ([5]; Preemergence, 62 g ai/ha) was 95 and the “Plant response rating, Nutsedge, Yellow” value ([5]; Preemergence, 125 g ai/ha) was 98. The “Plant response rating, Johnsongrass” value ([6]; Postemergence, 16 g ai/ha) was 5, the “Plant response rating, Johnsongrass” value ([6]; Postemergence, 31 g ai/ha) was 10 and the “Plant response rating, Johnsongrass” value ([6]; Postemergence, 62 g ai/ha) was 30. The “Plant response rating, Johnsongrass” value ([6]; Postemergence, 125 g ai/ha) was 35, the “Plant response rating, Johnsongrass” value ([6]; Preemergence, 31 g ai/ha) was 40 and the “Plant response rating, Johnsongrass” value ([6]; Preemergence, 61 g ai/ha) was 35. For the same molecule, the “Plant response rating, Johnsongrass” value ([6]; Preemergence, 62 g ai/ha) was 30, the “Plant response rating, Johnsongrass” value ([6]; Preemergence, 125 g ai/ha) was 65 and the “Plant response rating, Barnyardgrass” value ([7]; Postemergence, 16 g ai/ha) was 55. For the same molecule, the “Plant response rating, Barnyardgrass” value ([7]; Postemergence, 31 g ai/ha) was 75, the “Plant response rating, Barnyardgrass” value ([7]; Postemergence, 62 g ai/ha) was 75 and the “Plant response rating, Barnyardgrass” value ([7]; Postemergence, 125 g ai/ha) was 85. For the same molecule, the “Plant response rating, Barnyardgrass” value ([7]; Preemergence, 31 g ai/ha) was 85, the “Plant response rating, Barnyardgrass” value ([7]; Preemergence, 61 g ai/ha) was 70 and the “Plant response rating, Barnyardgrass” value ([7]; Preemergence, 62 g ai/ha) was 95. The “Plant response rating, Barnyardgrass” value ([7]; Preemergence, 125 g ai/ha) was 100, the “Plant response rating, Waterhemp” value ([8]; Postemergence, 16 g ai/ha) was 75 and the “Plant response rating, Waterhemp” value ([8]; Postemergence, 31 g ai/ha) was 70. For the same molecule, the “Plant response rating, Waterhemp” value ([8]; Postemergence, 62 g ai/ha) was 95, the “Plant response rating, Waterhemp” value ([8]; Postemergence, 125 g ai/ha) was 95 and the “Plant response rating, Waterhemp” value ([8]; Preemergence, 31 g ai/ha) was 100. The “Plant response rating, Waterhemp” value ([8]; Preemergence, 61 g ai/ha) was 65, the “Plant response rating, Waterhemp” value ([8]; Preemergence, 62 g ai/ha) was 100 and the “Plant response rating, Waterhemp” value ([8]; Preemergence, 125 g ai/ha) was 100. For the same molecule, the “Plant response rating, Corn” value (corn (Zea mays); Postemergence, 16 g ai/ha) was 0, the “Plant response rating, Corn” value (corn (Zea mays); Postemergence, 31 g ai/ha) was 5 and the “Plant response rating, Corn” value (corn (Zea mays); Postemergence, 62 g ai/ha) was 5. The “Plant response rating, Corn” value (corn (Zea mays); Postemergence, 125 g ai/ha) was 20, the “Plant response rating, Corn” value (corn (Zea mays); Preemergence, 31 g ai/ha) was 0 and the “Plant response rating, Corn” value (corn (Zea mays); Preemergence, 61 g ai/ha) was 0. The “Plant response rating, Corn” value (corn (Zea mays); Preemergence, 62 g ai/ha) was 5 and the “Plant response rating, Corn” value (corn (Zea mays); Preemergence, 125 g ai/ha) was 35.
